Our source for the Ki and Kd values is US10857196B2, “Bicyclic peptide ligands and uses thereof” (BicycleTx Limited, priority 2017, dated 2020).

pKd, pKi: −log10 of the molar value. Square brackets hold non-standard residues; d marks the D form. Ends that are not written are not given here. 1Nal = N[C@@H](Cc1cccc2ccccc12)C(=O)O; Tle = CC(C)(C)[C@H](N)C(=O)O; βAla = NCCC(=O)O; Sar = CNCC(=O)O

As a reminder, the pKi is the Ki on a negative log10 scale, so that one unit is a factor of ten. For orientation: pKd means the Kd on a negative log10 scale, so that one unit is a factor of ten.

For experiment [1], the target named is T1, CAIX (Homo sapiens, UniProt Q16790). Description: CAIX competition binding assay (competition fluorescence polarization). As to conditions: fluorescent ligand A-(CAECWIDGWVPC)-A-Sar6-K(Fl). The procedure:
CAIX Competition Binding Assay Affinity of the peptides of the invention for human CAIX (Ki) was determined using a competition fluorescence polarization assay analogous to that described in Dubois et al. (2011) Radiotherapy and Oncology 99(3), 424-43 using A-(CAECWIDGWVPC)-A-Sar6-K(Fl) (SEQ ID NO: 5) as the fluorescent ligand.
A Ki value designated “A” denotes a Ki of ≤50 nM; a Ki value designated “B” denotes a K, of >50 nM and ≤100 nM; a Ki value designated “C” denotes a Ki of >100 nM and ≤1,000 nM; and a Ki value designated “D” denotes a Ki of >1,000 nM.
In general terms: Polarisation of emitted light reports the rotation of a fluorescent probe.

The target in experiment [2] is MT1-MMP (Homo sapiens, UniProt P50281). To be noted: bicyclic peptide formed with TBMB scaffold; MT1-MMP binder; cited from earlier work.
Experiment [3] deals with T1, CAIX. As to conditions: bicyclic peptide formed with TBMB scaffold; CAIX binder; cited from earlier work.

In experiment [1], `CC(C)[C@@H]1NC(=O)[C@H](Cc2c[nH]c3ccccc23)NC(=O)[C@@H]2CSCC(=O)N3CC45CN(C[C@@]4(CN(C5)C(=O)CSC[C@H](NC(=O)[C@H](C)NC(=O)CN(C)C(=O)CN(C)C(=O)CN(C)C(=O)CN(C)C(=O)CN(C)C(=O)CN(C)C(=O)CN(C)C(=O)CN(C)C(=O)CN(C)C(=O)CN(C)C(=O)CCN)C(=O)N[C@@H]([C@@H](C)O)C(=O)N[C@@H](CCC(=O)O)C(=O)N2)C3)C(=O)CSC[C@@H](C(N)=O)NC(=O)[C@@H]2CCCN2C(=O)[C@H](C(C)C)NC(=O)[C@H](Cc2c[nH]c3ccccc23)NC(=O)CNC(=O)[C@H](CC(=O)O)NC1=O` [Compound I-23] gave a pKi below 6.00.

In experiment [1], `CC(C)[C@@H]1NC(=O)[C@H](Cc2c[nH]c3ccccc23)NC(=O)[C@@H]2CSCCC(=O)N3CC45CN(CC4(CN(C5)C(=O)CCSC[C@H](NC(=O)[C@H](C)NC(=O)CN(C)C(=O)CN(C)C(=O)CN(C)C(=O)CN(C)C(=O)CN(C)C(=O)CN(C)C(=O)CN(C)C(=O)CN(C)C(=O)CN(C)C(=O)CN(C)C(=O)CCN)C(=O)N[C@@H]([C@@H](C)O)C(=O)N[C@@H](CCC(=O)O)C(=O)N2)C3)C(=O)CCSC[C@@H](C(=O)O)NC(=O)[C@@H]2CCCN2C(=O)[C@H](C(C)C)NC(=O)[C@H](Cc2c[nH]c3ccccc23)NC(=O)CNC(=O)[C@H](CC(=O)O)NC1=O` [Compound I-24] had a pKi below 6.00.

In experiment [1], `CC(C)[C@@H]1NC(=O)[C@H](Cc2c[nH]c3ccccc23)NC(=O)[C@@H]2CSCC(=O)N3CCOCCN(CCOCCN(CCOCC3)C(=O)CSC[C@H](NC(=O)[C@H](C)NC(=O)CN(C)C(=O)CN(C)C(=O)CN(C)C(=O)CN(C)C(=O)CN(C)C(=O)CN(C)C(=O)CN(C)C(=O)CN(C)C(=O)CN(C)C(=O)CN(C)C(=O)CCN)C(=O)N[C@@H]([C@@H](C)O)C(=O)N[C@@H](CCC(=O)O)C(=O)N2)C(=O)CSC[C@@H](C(=O)O)NC(=O)[C@@H]2CCCN2C(=O)[C@H](C(C)C)NC(=O)[C@H](Cc2c[nH]c3ccccc23)NC(=O)CNC(=O)[C@H](CC(=O)O)NC1=O` [Compound I-26] gave a negative-log Ki (pKi) of 6.00 to 7.00.

Take `CC(C)[C@@H]1NC(=O)[C@H](Cc2c[nH]c3ccccc23)NC(=O)[C@@H]2CSCCS(=O)(=O)N3CCN(CCN(CC3)S(=O)(=O)CCSC[C@H](NC(=O)[C@H](C)NC(=O)CN(C)C(=O)CN(C)C(=O)CN(C)C(=O)CN(C)C(=O)CN(C)C(=O)CN(C)C(=O)CN(C)C(=O)CN(C)C(=O)CN(C)C(=O)CN(C)C(=O)CCN)C(=O)N[C@@H]([C@@H](C)O)C(=O)N[C@@H](CCC(=O)O)C(=O)N2)S(=O)(=O)CCSC[C@@H](C(=O)O)NC(=O)[C@@H]2CCCN2C(=O)[C@H](C(C)C)NC(=O)[C@H](Cc2c[nH]c3ccccc23)NC(=O)CNC(=O)[C@H](CC(=O)O)NC1=O` [Compound I-62]: in experiment [1], the pKi was 6.00 to 7.00.

Consider `CC(C)[C@@H]1NC(=O)[C@H](Cc2c[nH]c3ccccc23)NC(=O)[C@@H]2CSCC(=O)NCCN(CCNC(=O)CSC[C@@H](C(N)=O)NC(=O)[C@@H]3CCCN3C(=O)[C@H](C(C)C)NC(=O)[C@H](Cc3c[nH]c4ccccc34)NC(=O)CNC(=O)[C@H](CC(=O)O)NC1=O)CCNC(=O)CSC[C@H](NC(=O)[C@H](C)NC(=O)CN(C)C(=O)CN(C)C(=O)CN(C)C(=O)CN(C)C(=O)CN(C)C(=O)CN(C)C(=O)CN(C)C(=O)CN(C)C(=O)CN(C)C(=O)CN(C)C(=O)CCN)C(=O)N[C@@H]([C@@H](C)O)C(=O)N[C@@H](CCC(=O)O)C(=O)N2` [Compound I-63], for which the pKi in experiment [1] was at least 7.30.

As to “βAla-Sar10-A-C(D-Ala)NE(1Nal)(D-Ala)CEDFYD(tBuGLy)C ([βAla][Sar][Sar][Sar][Sar][Sar][Sar][Sar][Sar][Sar][Sar]AC[dA]NE[1Nal][dA]CEDFYD[Tle]C; cysteine pairing not given here) [17-69-07-N241]”, the pKd in experiment [2] is 8.92.

On to βAla-Sar10-A-CTECWVDGWVPC [Compound 2], for which the pKd in experiment [3] was 8.00.
